Measurements reported in patent publication US8216786B2, “Genetic polymorphisms associated with cardiovascular diseases, methods of detection and uses thereof” (Celera Corporation, priority 2008, dated 2012).

System: individuals who have previously had an MI
Experiment: CARE trial: effect of pravastatin vs placebo on coronary events (endpt1, rmi) by SNP genotype subgroup
Format: in vivo, human
Description: In Tables 21-22, the column labeled “Endpoint” indicates whether the endpoint that was analyzed was the primary endpoint of the CARE study (a composite endpoint of fatal coronary event or nonfatal MI, and identified as “endpt1”) or a composite endpoint of confirmed fatal or nonfatal MI (identified as “rmi”). […] As used herein, the term “benefit” (with respect to a preventive or therapeutic drug treatment) is defined as achieving a reduced risk for a disease that the drug is intended to treat or prevent (e.g., CVD such as CHD, particularly MI, or hypertension) by administering the drug treatment, compared with the risk for the disease in the absence of receiving the drug treatment (or receiving a placebo in lieu of the drug treatment) for the same genotype. […] J. […] (1996) New England Journal of Medicine 335: 1001-1009. […] A well-documented MI was one of the enrollment criteria for entry into the CARE study. Patients were enrolled in the CARE trial from 80 participating study centers. […] For the study of CARE described in this Example and shown in Tables 21-22, two endpoints were investigated: the primary endpoint of CARE (a composite endpoint of fatal coronary event or nonfatal MI, and identified as “endpt1” in the Endpoint column of Tables 21-22) and a composite endpoint of confirmed fatal or nonfatal MI (identified as “rmi” in the Endpoint column of Tables 21-22). […] HR stands for Hazard Ratio, which is a concept similar to Odds Ratio (OR). The HR in event-free survival analysis is the effect of an explanatory variable on the hazard or risk of an event. […] In Table 21, p-interaction values were calculated. An interaction (or effect modification) is formed when a third variable modifies the relation between an exposure and outcome. […] Genotype and drug interaction is present when the effect of statins (incidence rate of disease in statin-treated group, as compared to placebo) differs in patients with different genotypes.

[1] = endpt1, hCV370782 rs9841174 SERPINI2, CC
[2] = endpt1, hCV370782 rs9841174 SERPINI2, CT + TT
[3] = endpt1, hCV795442 rs375947 IL12RB1, AA
[4] = endpt1, hCV795442 rs375947 IL12RB1, GA + GG
[5] = endpt1, hCV818008 rs5918 ITGB3, CC
[6] = endpt1, hCV818008 rs5918 ITGB3, CT + TT
[7] = endpt1, hCV904973 rs7412 APOE, CC
[8] = endpt1, hCV904973 rs7412 APOE, TC + TT
[9] = endpt1, hCV997884 rs512770, AG + GG
[10] = endpt1, hCV2553030 rs11230562 CD6, TC + CC
[11] = endpt1, hCV2553030 rs11230562 CD6, TT
[12] = endpt1, hCV2769554 rs1805010 IL4R, GA + AA
[13] = endpt1, hCV2769554 rs1805010 IL4R, GG
[14] = endpt1, hCV2822674 rs1801222 CUBN, AA
[15] = endpt1, hCV2822674 rs1801222 CUBN, AG + GG
[16] = endpt1, hCV2983036 rs9527025 KL, CC
[17] = endpt1, hCV2983036 rs9527025 KL, CG
[18] = endpt1, hCV2983036 rs9527025 KL, GG
[19] = endpt1, hCV2992252 rs6037651 SIGLEC1, CC
[20] = endpt1, hCV2992252 rs6037651 SIGLEC1, CT + TT
[21] = endpt1, hCV3135085 rs10795446 CUBN, GG
[22] = endpt1, hCV3187716 rs5186 AGTR1, CA + AA
[23] = endpt1, hCV3187716 rs5186 AGTR1, CC
[24] = endpt1, hCV3215409 rs267561 ITGA9, GA + AA
[25] = endpt1, hCV3215409 rs267561 ITGA9, GG
[26] = endpt1, hCV3219460 rs1799983 NOS3, TG + GG
[27] = endpt1, hCV3219460 rs1799983 NOS3, TT
[28] = endpt1, hCV7514870 rs1041981 LTA, AA
[29] = endpt1, hCV7514870 rs1041981 LTA, AC + CC
[30] = endpt1, hCV8705506 rs5516 KLK1, CG + CC
[31] = endpt1, hCV8705506 rs5516 KLK1, GG
[32] = endpt1, hCV8708473 rs1800469 TMEM91, AA
[33] = endpt1, hCV8708473 rs1800469 TMEM91, AG + GG
[34] = endpt1, hCV8708474 rs1800468 MGC4093, CC
[35] = endpt1, hCV8708474 rs1800468 MGC4093, TC + TT
[36] = endpt1, hCV8709053 rs4880 SOD2, GA + AA
[37] = endpt1, hCV8709053 rs4880 SOD2, GG
[38] = endpt1, hCV8718197 rs1050998 CXCL16, AA
[39] = endpt1, hCV8718197 rs1050998 CXCL16, GA + GG
[40] = endpt1, hCV8726337 rs5498 ICAM1, AA
[41] = endpt1, hCV8726337 rs5498 ICAM1, GA + GG
[42] = endpt1, hCV8737990 rs419598 IL1RN, CC
[43] = endpt1, hCV8737990 rs419598 IL1RN, CT + TT
[44] = endpt1, hCV8784787 rs688976, AA
[45] = endpt1, hCV8784787 rs688976, AC + CC
[46] = endpt1, hCV8804621 rs1390938 SLC18A1, AA
[47] = endpt1, hCV8804621 rs1390938 SLC18A1, AG + GG
[48] = endpt1, hCV8848630 rs7192 HLA-DRA, GG
[49] = endpt1, hCV8848630 rs7192 HLA-DRA, TG + TT
[50] = endpt1, hCV8851047 rs45614833 HLA-DPA1, CC

SMILES: CC[C@H](C)C(=O)O[C@H]1C[C@H](O)C=C2C=C[C@H](C)[C@H](CC[C@@H](O)C[C@@H](O)CC(=O)O)[C@H]21 [pravastatin]
- Hazard ratio, Pravastatin vs placebo (CARE, SNP hCV11170747, genotype strata in row order): 0.87
- EVENTS (Pravastatin arm) [1]: 20
- NONEVENT (Pravastatin arm) [1]: 194
- EVENTS (Pravastatin arm) [2]: 113
- NONEVENT (Pravastatin arm) [2]: 1097
- EVENTS (Pravastatin arm) [3]: 52
- NONEVENT (Pravastatin arm) [3]: 599
- EVENTS (Pravastatin arm) [4]: 80
- NONEVENT (Pravastatin arm) [4]: 691
- EVENTS (Pravastatin arm) [5]: 7
- NONEVENT (Pravastatin arm) [5]: 26
- EVENTS (Pravastatin arm) [6]: 126
- NONEVENT (Pravastatin arm) [6]: 1266
- EVENTS (Pravastatin arm) [7]: 114
- NONEVENT (Pravastatin arm) [7]: 1149
- EVENTS (Pravastatin arm) [8]: 19
- NONEVENT (Pravastatin arm) [8]: 141
- EVENTS (Pravastatin arm) (endpt1, hCV997884 rs512770, AA): 5
- NONEVENT (Pravastatin arm) (endpt1, hCV997884 rs512770, AA): 42
- EVENTS (Pravastatin arm) [9]: 126
- NONEVENT (Pravastatin arm) [9]: 1241
- EVENTS (Pravastatin arm) [10]: 129
- NONEVENT (Pravastatin arm) [10]: 1179
- EVENTS (Pravastatin arm) [11]: 3
- NONEVENT (Pravastatin arm) [11]: 107
- EVENTS (Pravastatin arm) [12]: 101
- NONEVENT (Pravastatin arm) [12]: 1001
- EVENTS (Pravastatin arm) [13]: 32
- NONEVENT (Pravastatin arm) [13]: 287
- EVENTS (Pravastatin arm) [14]: 10
- NONEVENT (Pravastatin arm) [14]: 150
- EVENTS (Pravastatin arm) [15]: 123
- NONEVENT (Pravastatin arm) [15]: 1140
- EVENTS (Pravastatin arm) [16]: 4
- NONEVENT (Pravastatin arm) [16]: 22
- EVENTS (Pravastatin arm) [17]: 32
- NONEVENT (Pravastatin arm) [17]: 363
- EVENTS (Pravastatin arm) [18]: 97
- NONEVENT (Pravastatin arm) [18]: 906
- EVENTS (Pravastatin arm) [19]: 8
- NONEVENT (Pravastatin arm) [19]: 196
- EVENTS (Pravastatin arm) [20]: 124
- NONEVENT (Pravastatin arm) [20]: 1089
- EVENTS (Pravastatin arm) [21]: 10
- NONEVENT (Pravastatin arm) [21]: 147
- EVENTS (Pravastatin arm) [22]: 128
- NONEVENT (Pravastatin arm) [22]: 1176
- EVENTS (Pravastatin arm) [23]: 5
- NONEVENT (Pravastatin arm) [23]: 112
- EVENTS (Pravastatin arm) [24]: 118
- NONEVENT (Pravastatin arm) [24]: 1057
- EVENTS (Pravastatin arm) [25]: 15
- NONEVENT (Pravastatin arm) [25]: 235
- EVENTS (Pravastatin arm) [26]: 124
- NONEVENT (Pravastatin arm) [26]: 1114
- EVENTS (Pravastatin arm) [27]: 9
- NONEVENT (Pravastatin arm) [27]: 177
- EVENTS (Pravastatin arm) [28]: 12
- NONEVENT (Pravastatin arm) [28]: 172
- EVENTS (Pravastatin arm) [29]: 121
- NONEVENT (Pravastatin arm) [29]: 1118
- EVENTS (Pravastatin arm) [30]: 66
- NONEVENT (Pravastatin arm) [30]: 749
- EVENTS (Pravastatin arm) [31]: 67
- NONEVENT (Pravastatin arm) [31]: 543
- EVENTS (Pravastatin arm) [32]: 9
- NONEVENT (Pravastatin arm) [32]: 139
- EVENTS (Pravastatin arm) [33]: 124
- NONEVENT (Pravastatin arm) [33]: 1153
- EVENTS (Pravastatin arm) [34]: 103
- NONEVENT (Pravastatin arm) [34]: 1068
- EVENTS (Pravastatin arm) [35]: 30
- NONEVENT (Pravastatin arm) [35]: 212
- EVENTS (Pravastatin arm) [36]: 105
- NONEVENT (Pravastatin arm) [36]: 954
- EVENTS (Pravastatin arm) [37]: 28
- NONEVENT (Pravastatin arm) [37]: 335
- EVENTS (Pravastatin arm) [38]: 33
- NONEVENT (Pravastatin arm) [38]: 409
- EVENTS (Pravastatin arm) [39]: 98
- NONEVENT (Pravastatin arm) [39]: 879
- EVENTS (Pravastatin arm) [40]: 31
- NONEVENT (Pravastatin arm) [40]: 430
- EVENTS (Pravastatin arm) [41]: 102
- NONEVENT (Pravastatin arm) [41]: 857
- EVENTS (Pravastatin arm) [42]: 15
- NONEVENT (Pravastatin arm) [42]: 96
- EVENTS (Pravastatin arm) [43]: 117
- NONEVENT (Pravastatin arm) [43]: 1193
- EVENTS (Pravastatin arm) [44]: 6
- NONEVENT (Pravastatin arm) [44]: 57
- EVENTS (Pravastatin arm) [45]: 126
- NONEVENT (Pravastatin arm) [45]: 1234
- EVENTS (Pravastatin arm) [46]: 8
- NONEVENT (Pravastatin arm) [46]: 69
- EVENTS (Pravastatin arm) [47]: 125
- NONEVENT (Pravastatin arm) [47]: 1218
- EVENTS (Pravastatin arm) [48]: 59
- NONEVENT (Pravastatin arm) [48]: 485
- EVENTS (Pravastatin arm) [49]: 74
- NONEVENT (Pravastatin arm) [49]: 802
- EVENTS (Pravastatin arm) [50]: 7
- NONEVENT (Pravastatin arm) [50]: 32
- EVENTS (Pravastatin arm) (endpt1, hCV8851047 rs45614833 HLA-DPA1, CT + TT): 126
